In brackets after ≈: the same amount, converted by molar mass.
How the values were obtained:
[1] = DPPH radical scavenging assay; details: 30 min, 517 nm, mean ± SEM (n = 3)
Protocol: Each sample's stock solution was diluted to final concentrations of 1000–0.4889 μg/mL in MeOH. A total of 1 mL of a 0.3 mM DPPH methanolic solution was added to 2.5 mL of sample solution of different concentrations and allowed to react at room temperature. After 30 min, the absorbance (Abs) values were measured at 517 nm with a microplate reader (Tecan NanoQuant Infinite M200, Switzerland) and converted into the percentage antioxidant activity using the following equation described previously: (1) % antioxidant activity=100−Abssample−Abssample blank/Abscontrol−Abscontrol blank×100. MeOH + compound solution was used as a blank, while DPPH solution plus MeOH was used as a negative control. The positive controls were DPPH solution plus 1 mM ascorbic acid. The IC50 values were calculated by linear regression of plots. The average percent of scavenging capacity was taken from three replicates.

[2] = Rapid screening of radical scavenging activity by dot blot assay (DPPH staining); details: silica sheet stained with DPPH in MeOH, dilutions from 1000 μg/mL
Protocol: An aliquot (20 μL) of each dilution of each group was carefully loaded on a […] TLC plate and allowed to dry for 10 min. Drops of each sample were loaded in the order of decreased concentration along the 16 columns. The staining of the silica plate was based on the procedure of Soler-Rivas et al.. […] The intensity of the yellow color depends upon the amount and nature of radical scavenger present in the flavonoids.

[3] = target: α-glucosidase from Saccharomyces cerevisiae; test: α-Glucosidase inhibitory assay; assay type: biochemical; details: Table 3; mean ± SEM (n = 3); NA: not active
Protocol: α-Glucosidase inhibitory activity of the flavonoids was carried out according to the standard method with minor modification. […] A solution of 30 mM phosphate buffer (pH 6.5) was used to prepare stock solution of the sample to form a final concentration of 160 μg/mL. Then, 10 μL/well of sample was mixed with 15 μL/well of α-glucosidase from Saccharomyces cerevisiae (Megazyme, Ireland). 50 mM buffer (pH 6.5) was used to prepare the enzyme solution. Then, 115 μL/well of 30 mM buffer (pH 6.5) was added and incubated for 5 min at room temperature. Then, 75 μL/well of PNP-glucoside was added to initiate reaction and incubated at room temperature for 15 min. Finally, about 50 μL glycine at pH 10 was added to stop the reaction. The final volume of 250 μL of compound, positive control, enzyme, 30 mM buffer, and substrate was located in 96-well microplate. The absorbance (Abs) was measured using microplate reader (Tecan NanoQuant Infinite M200, Switzerland) at 405 nm to represent the amount of p-nitrophenol released from PNP-glucoside. […] The equation given below was used to calculate the inhibitory activity (%):(4) Inhibitory activity%=Abs control−Abs sample/Abs control×100%.
Tested on yeast α-glycosidase, the reaction is initiated by reacting the inhibitor (sample) with the α-glycosidase enzyme that competes with […] for the binding site, thus releasing ρ-nitrophenol which was measured in the assay.

[4] = target: T1, DPP-4 (Homo sapiens, UniProt P27487); test: Dipeptidyl peptidase IV (DPP-4) inhibitory assay; assay type: biochemical; details: Table 3; mean ± SEM (n = 3); NA: not active
T1 construct: purchased Cayman (Michigan, USA)
T1 sequence (P27487 whole entry): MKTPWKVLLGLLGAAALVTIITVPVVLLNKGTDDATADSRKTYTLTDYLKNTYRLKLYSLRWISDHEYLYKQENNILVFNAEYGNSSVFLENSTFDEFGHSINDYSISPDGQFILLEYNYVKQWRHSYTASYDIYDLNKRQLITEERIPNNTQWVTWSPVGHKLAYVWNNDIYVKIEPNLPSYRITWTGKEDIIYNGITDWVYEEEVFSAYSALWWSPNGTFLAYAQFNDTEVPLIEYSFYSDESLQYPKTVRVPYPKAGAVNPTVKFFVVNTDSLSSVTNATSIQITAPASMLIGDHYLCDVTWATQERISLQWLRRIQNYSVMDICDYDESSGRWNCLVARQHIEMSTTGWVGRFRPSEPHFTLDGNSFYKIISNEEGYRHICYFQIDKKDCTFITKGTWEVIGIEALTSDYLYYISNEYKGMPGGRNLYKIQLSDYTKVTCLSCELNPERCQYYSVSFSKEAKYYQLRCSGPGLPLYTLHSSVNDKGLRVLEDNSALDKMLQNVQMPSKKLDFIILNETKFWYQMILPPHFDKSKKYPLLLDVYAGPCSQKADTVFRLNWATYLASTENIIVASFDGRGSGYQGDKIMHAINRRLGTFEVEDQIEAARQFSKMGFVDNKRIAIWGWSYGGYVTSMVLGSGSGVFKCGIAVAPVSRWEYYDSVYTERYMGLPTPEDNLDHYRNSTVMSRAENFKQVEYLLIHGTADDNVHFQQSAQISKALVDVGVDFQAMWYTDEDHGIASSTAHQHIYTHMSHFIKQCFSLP
Protocol: Dipeptidyl peptidase (IV) inhibitors work by inhibiting the action of this enzyme, thereby prolonging the activity of incretins that play an important role in insulin secretion and blood glucose control regulation. DPP-4 inhibitory assay was performed as per the standard method (Cayman, USA). Firstly, 1 mg of sample was dissolved in 10% of DMSO and MeOH as the stock solution. For initial activity (100%), 10 μL of MeOH, 30 μL of diluted assay buffer, and 10 μL of diluted DPP-4 (Cayman, USA) were added to 96-well microplate. […] For background well, 10 μL of MeOH and 40 μL of diluted assay buffer were added. Then, 10 μL of prepared sample and 30 μL of diluted assay buffer were added with 10 μL of diluted DPP-4. After that, 50 μL of substrate solution was added to all wells to initiate the reaction and further incubated in the dark at 37°C for 30 min. Finally, plate was read at 360 nm of excitation wavelength and 465 nm of emission wavelength using fluorescence microplate reader (Perkin Elmer, Germany). All determinations were done in triplicate and half maximal concentration (IC50) values were calculated from the percentage of inhibition based on the linear regression analysis. The equation given below was applied to calculate the inhibitory activity (%):(5) Inhibitory activity%=Initial Activity−Sample/Initial Activity×100%.
For DPP-4 inhibitory assay, the reaction is based on the cleavage of the peptide bond by DPP releasing the free Gly-Pro-aminomethylcoumarin group, a fluorogenic substrate resulting in fluorescence excitation and emission.

[5] = Ferric reducing antioxidant power (FRAP); details: for FRAP (AAE μg): ascorbic acid equivalent, mean ± SEM (n = 3), Table 2
Protocol: This assay was based on the reduction of the ferric tripyridyltriazine (Fe III-TPTZ) complex to the ferrous ion (Fe II) at a low pH forming an intense blue color. In the FRAP assay, compounds that are rich in antioxidant effect exert their action by breaking the free radical chain by donating a hydrogen atom. Briefly, ferric reducing antioxidant power (FRAP) reagent (2.5 mL of a 10 mM TPTZ solution in 40 mM HCl, 2.5 mL of 20 mM FeCl3, and 25 mL of 0.1 M acetate buffer pH 3.6) was prepared and incubated for 10 min at 37°C. Then 20 μL of each compound and ascorbic acid (standard) and 40 μL of FRAP reagent were added to 140 μL of distilled water in a 96-well plate producing a blue-colored solution. The solutions were kept at room temperature for 20 min in the dark and then measured at 593 nm with a microplate reader (Tecan, Switzerland) using a reagent blank composed of 40 μL of FRAP reagents in 200 μL of distilled water. A calibration curve was prepared with a serial dilution of ascorbic acid (standard). The total antioxidant capacity was calculated by interpolating the measured absorbance of the calibration curve and expressed as ascorbic acid equivalents. The results were corrected for dilution and expressed as AAE μg of ascorbic acid/g.

[6] = ABTS+ radical scavenging assay; details: 734 nm, mean ± SEM (n = 3)
Protocol: An improved ABTS^+ radical decolorization assay was carried out involving direct production of the blue/green ABTS^+ chromophore through the reaction between ABTS and potassium persulfate. Addition of antioxidant to the preformed radical cation reduces it to ABTS to an extent on a time scale depending on the antioxidant activity, the concentration of the antioxidant, and the duration of the reaction. 1 ml ABTS was dissolved in water to make 7 mM concentration of the resultant solution. […] The resultant reaction mixture was allowed to stand in the dark at room temperature for 12–16 h before being used. The ABTS^+ radical solution was diluted with MeOH to an absorbance of 0.7 (±0.02) at 734 nm. Then, 100 μl of sample at various concentrations (1000–0.4889 μg/mL) was mixed with 100 μL of diluted ABTS^+ radical. Each concentration was analyzed in triplicate and the percentage decrease of absorbance at 734 nm with a microplate reader (Tecan NanoQuant Infinite M200, Switzerland) was calculated for each point and the antioxidant capacity of the tested compounds was expressed as percent inhibition (%). The radical scavenging activity of the compounds was measured according to the following equation [29]:(2) % inhibition=Acontrol−Asample/Acontrol×100. IC50 values were calculated by linear regression of plots, and the average percent of scavenging capacity was taken from three replicates. Trolox was used as a standard in comparison for the determination of the antioxidant activity of the flavonoids.

[7] = target: T2, xanthine oxidase from buttermilk (Bos taurus, UniProt P80457); test: Xanthine oxidase inhibitory assay (XOI); assay type: biochemical
T2 construct: 0.3 U/mL enzymes (xanthine oxidase from buttermilk); purchased Sigma-Aldrich (Singapore); host or cells: buttermilk (natural source)
T2 sequence (P80457 whole entry): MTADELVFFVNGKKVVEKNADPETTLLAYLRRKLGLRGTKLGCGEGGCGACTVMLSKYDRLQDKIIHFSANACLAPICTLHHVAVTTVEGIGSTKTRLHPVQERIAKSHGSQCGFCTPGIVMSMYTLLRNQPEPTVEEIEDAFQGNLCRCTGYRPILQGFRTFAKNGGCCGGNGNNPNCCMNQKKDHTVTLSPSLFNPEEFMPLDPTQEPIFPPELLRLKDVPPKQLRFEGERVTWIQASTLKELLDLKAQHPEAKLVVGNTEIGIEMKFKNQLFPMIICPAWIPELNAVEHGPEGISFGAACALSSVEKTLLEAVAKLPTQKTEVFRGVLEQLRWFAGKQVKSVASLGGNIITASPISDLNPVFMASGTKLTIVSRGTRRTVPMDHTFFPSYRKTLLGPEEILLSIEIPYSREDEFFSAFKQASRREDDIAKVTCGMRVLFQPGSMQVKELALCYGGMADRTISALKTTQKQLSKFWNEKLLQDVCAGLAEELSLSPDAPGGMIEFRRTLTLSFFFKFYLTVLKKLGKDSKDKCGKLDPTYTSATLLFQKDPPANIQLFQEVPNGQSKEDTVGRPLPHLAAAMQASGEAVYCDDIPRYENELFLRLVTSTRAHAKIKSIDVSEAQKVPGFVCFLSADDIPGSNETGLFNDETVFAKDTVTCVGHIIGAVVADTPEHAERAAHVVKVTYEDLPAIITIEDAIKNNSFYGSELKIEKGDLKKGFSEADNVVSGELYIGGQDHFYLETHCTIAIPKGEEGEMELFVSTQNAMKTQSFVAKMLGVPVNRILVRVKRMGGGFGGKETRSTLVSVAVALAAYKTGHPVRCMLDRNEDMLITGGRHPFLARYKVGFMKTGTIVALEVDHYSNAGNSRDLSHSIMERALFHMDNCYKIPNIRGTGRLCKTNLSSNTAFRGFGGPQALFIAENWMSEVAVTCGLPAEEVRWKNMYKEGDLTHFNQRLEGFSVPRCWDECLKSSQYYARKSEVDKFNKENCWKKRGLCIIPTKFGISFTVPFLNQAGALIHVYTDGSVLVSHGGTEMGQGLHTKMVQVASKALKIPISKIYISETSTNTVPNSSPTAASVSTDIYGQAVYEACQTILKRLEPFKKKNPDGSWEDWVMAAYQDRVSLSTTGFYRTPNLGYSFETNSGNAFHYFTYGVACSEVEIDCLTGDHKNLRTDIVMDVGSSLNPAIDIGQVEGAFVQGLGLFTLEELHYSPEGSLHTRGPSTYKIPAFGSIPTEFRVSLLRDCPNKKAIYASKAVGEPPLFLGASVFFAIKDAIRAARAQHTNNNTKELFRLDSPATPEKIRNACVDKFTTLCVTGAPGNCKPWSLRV
Protocol: XO catalyzes the oxidation of hypoxanthine to xanthine and subsequently to uric acid. The inhibition of XO reduces both vascular oxidative stress and circulating levels of uric acid. This assay is based on the fact that the superoxide anions are generated by the xanthine. The xanthine oxidase inhibitory activity was measured spectrophotometrically (Tecan NanoQuant Infinite M200, Switzerland) at 295 nm under aerobic condition with slight modification. The reaction mixture contained 50 mM phosphate buffer (pH 7.5), 0.15 mM xanthine (substrate), and 0.3 U/mL enzymes (xanthine oxidase from buttermilk). Samples were prepared by dissolving 1 mg in 5% DMSO in MeOH which gives sample concentration of 144.0 μg/mL in assay. […] The absorption increment at 295 nm indicates the formation of […] of uric acid/min at 25°C. […] All determination was done in triplicate and half maximal concentration (IC50) values were calculated from the percentage of inhibition. XO inhibition activity was expressed as the percentage inhibition of XO as follows:(3) % of inhibition=AbsA−B−C−D/AbsA−B×100, where A is the negative control with B as the blank of A which is without the enzyme and the sample while C is the activity of the sample with enzyme with D as the blank of the sample without enzyme.

Question: Which results are given for `COc1ccc2c(=O)cc(-c3ccccc3)oc2c1O` [8-Hydroxy-7-methoxyflavone]?
Answer: IC50 DPPH [1]: 68.24 ± 3.70^C µg/ml; radical scavenging activity by dot blot (intensity of yellow spots) [2]: intermediate radical scavenging activity; IC50 α-Glucosidase [3]: >100^A µg/mg; IC50 [4]: > 373 µM; FRAP antioxidant capacity [5]: 104.92 ± 8.29 AAE μg of ascorbic acid/g; FRAP (AAE μg) [5]: 104.92 ± 8.29^D AAE μg; IC50 ABTS+ [6]: 3.19 ± 0.15^F µg/ml

Question: Which “xanthine oxidase inhibitory effect (in words)” value ([7]; discussion) does the source give for `O=c1cc(-c2ccccc2)oc2cc(O)cc(O)c12` [Chrysin, 5,7-Dihydroxyflavone] here?
Answer: low xanthine oxidase inhibitory activity

Question: What about the IC50 ([7]; xanthine oxidase inhibition, 295 nm, mean ± SEM (n = 3), NA: not active) of the same molecule?
Answer: > 393 µM

Question: What about the “IC50 DPPH” value [1] of the same molecule?
Answer: >100^B µg/ml

Question: What about the “radical scavenging activity by dot blot (intensity of yellow spots)” value [2] of the same molecule?
Answer: intermediate radical scavenging activity

Question: What about the “IC50 α-Glucosidase” value [3] of the same molecule?
Answer: >100^A µg/mg

Question: And the FRAP antioxidant capacity [5]?
Answer: 21.38 ± 1.86 AAE μg of ascorbic acid/g

Question: What about the “FRAP (AAE μg)” value [5] of the same molecule?
Answer: 21.38 ± 1.86^F AAE μg

Question: And the “IC50 ABTS+” value [6]?
Answer: >100^B µg/ml

Question: Which “IC50 DPPH” value [1] does the source give for `O=c1cc(-c2ccccc2)oc2c(O)c(O)cc(O)c12` [Norwogonin, 5,7,8-Trihydroxyflavone] here?
Answer: 35.61 ± 1.68^D µg/ml

Question: What about the “radical scavenging activity by dot blot (intensity of yellow spots)” value [2] of the same molecule?
Answer: intermediate radical scavenging activity

Question: And the “IC50 α-Glucosidase” value [3]?
Answer: >100^A µg/mg

Question: And the IC50 [4]?
Answer: > 370 µM

Question: What about the FRAP antioxidant capacity [5] of the same molecule?
Answer: 177.37 ± 1.82 AAE μg of ascorbic acid/g

Question: What about the “FRAP (AAE μg)” value [5] of the same molecule?
Answer: 152.14 ± 7.30^C AAE μg

Question: And the “IC50 ABTS+” value [6]?
Answer: 1.24 ± 0.19^FG µg/ml

Question: Which results are given for `COc1c(O)cc(O)c2c(=O)cc(-c3ccccc3)oc12` [Wogonin, 5,7-Dihydroxy-8-methoxyflavone]?
Answer: IC50 DPPH [1]: >100^B µg/ml; radical scavenging activity by dot blot (intensity of yellow spots) [2]: intermediate radical scavenging activity; IC50 α-Glucosidase [3]: >100^A µg/mg; IC50 [4]: > 352 µM; FRAP antioxidant capacity [5]: 39.15 ± 1.68 AAE μg of ascorbic acid/g; FRAP (AAE μg) [5]: 39.15 ± 1.68^E AAE μg; IC50 ABTS+ [6]: 52.63 ± 2.99^D µg/ml; IC50 ABTS+ ([6]; listed as wogonin): 52.65 ± 2.99 µg/mL (≈ 185 µM)

Reference: paper PMC5727842, “Antioxidant and Antidiabetic Effects of Flavonoids: A Structure-Activity Relationship Based Study” (BioMed Research International, 2017)
